Data on 12 molecules can be found in ChEMBL document CHEMBL1201862, “PubChem BioAssay data set” (2004).

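The compound was tested at five concentrations on cells cultured in 96-well plates, with a 48-hour exposure period. Abbreviation: GI50, concentration required for 50% inhibition of growth.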 Activity calls are given as the source filed them. No stated cut-off is given here; in the data, active = GI50 up to about 1.1 µM and inactive = higher.

Test systems include HOP-62; OVCAR-4; NCI-H522; K562; OVCAR-3; EKVX; A549; NCI-H226; SF-539; OVCAR-5; HOP-92; A498; HL-60; COLO 205; UACC-257; SK-MEL-5; HCT-116.
Holding throughout (assay): inhibition of tumour cell growth, NCI panel, 48 h

Turning to `NC(=O)c1csc(CCCCCCc2nc(C(N)=O)cs2)n1`, the GI50 in the assay with HOP-62 is > 100 µM (inactive); with OVCAR-4 it was > 57.7 µM (inactive); in the assay with NCI-H522, > 100 µM (inactive); in the assay with K562 it was > 39.1 µM (inactive); with OVCAR-3, > 100 µM (inactive); in the assay with EKVX, > 100 µM (inactive). Also, the GI50 in the assay with A549, with NCI-H226, with SF-539, with OVCAR-5, in the assay on HOP-92 and with A498 was > 100 µM (inactive) each time. In addition, the GI50 in the assay with HL-60 was > 100 µM (inactive); in the assay on COLO 205, > 59.3 µM (inactive); in the assay with UACC-257, > 62.5 µM (inactive); in the assay on SK-MEL-5, > 100 µM (inactive); in the assay on HCT-116, > 56.2 µM (inactive).
In the case of `CC1NOC(=O)C1/N=N/c1ccccc1Cl` (configuration not stated), the GI50 was 92.3 µM (inactive) in the assay with HOP-62; 39.9 µM (inactive) in the assay on OVCAR-4; 17.4 µM (inactive) in the assay with NCI-H522; 40.7 µM (inactive) in the assay on K562; 33.8 µM (inactive) in the assay with OVCAR-3; 88.9 µM (inactive) in the assay on EKVX. Also, the GI50 in the assay on A549 was 63.7 µM (inactive); in the assay on SF-539, 24.5 µM (inactive); with OVCAR-5 it was 34.8 µM (inactive); in the assay with HOP-92, 21.6 µM (inactive); in the assay on A498, 17 µM (inactive); with HL-60, 20 µM (inactive). The GI50 was 57.7 µM (inactive) in the assay on COLO 205, 17.8 µM (inactive) in the assay on UACC-257, 13.8 µM (inactive) in the assay on SK-MEL-5 and 37.2 µM (inactive) in the assay with HCT-116.
With `CNC(C)Cc1ccc(O)cc1` (configuration not stated), the GI50 with HOP-62, in the assay with OVCAR-4, in the assay with NCI-H522, in the assay on K562, in the assay on OVCAR-3 and in the assay with EKVX was > 100 µM (inactive) each time. Further, the GI50 in the assay on A549, with NCI-H226, with SF-539, in the assay on OVCAR-5, in the assay on HOP-92 and with A498 was > 100 µM (inactive) in each case. Also, the GI50 in the assay on HL-60, in the assay on COLO 205, with UACC-257, in the assay with SK-MEL-5 and with HCT-116 was > 100 µM (inactive) throughout.
As to `Oc1cccc2nc3cc(CN4CCOCC4)c(CN4CCOCC4)cc3nc12`, the GI50 with HOP-62 is 52 µM (inactive); in the assay on OVCAR-4, 67.3 µM (inactive); with NCI-H522 it was 30.9 µM (inactive); in the assay on K562 it was 34.3 µM (inactive); with OVCAR-3 it was 42.2 µM (inactive); in the assay with EKVX it was > 100 µM (inactive). Besides, the GI50 with A549 is 40.5 µM (inactive); in the assay on NCI-H226 it was 68.7 µM (inactive); with SF-539, 38.3 µM (inactive); in the assay on OVCAR-5, 43.8 µM (inactive); in the assay on HOP-92, 46.7 µM (inactive); in the assay on A498 it was > 100 µM (inactive). The GI50 in the assay with HL-60 was 33.3 µM (inactive); in the assay with COLO 205 it was 56.9 µM (inactive); in the assay on UACC-257, > 100 µM (inactive); in the assay on SK-MEL-5 it was 24.4 µM (inactive); with HCT-116 it was 52.2 µM (inactive).
In the case of `O=C1C(=O)N(c2cc(Cl)ccc2Cl)C(=O)C(=O)C1c1nc2ccccc2o1`, the GI50 is > 100 µM (inactive) in the assay with HOP-62; > 100 µM (inactive) in the assay with OVCAR-4; 90.6 µM (inactive) with NCI-H522; 61.1 µM (inactive) in the assay with K562; > 67.5 µM (inactive) in the assay with OVCAR-3; > 100 µM (inactive) with EKVX. Also, the GI50 is > 100 µM (inactive) in the assay with A549; > 100 µM (inactive) with SF-539; > 100 µM (inactive) in the assay with OVCAR-5; > 100 µM (inactive) in the assay on HOP-92; > 100 µM (inactive) in the assay on A498; 39.1 µM (inactive) with HL-60. In addition, the GI50 with COLO 205, in the assay with UACC-257, in the assay on SK-MEL-5 and in the assay on HCT-116 was > 100 µM (inactive) each time.
As to `COc1ccc(C2=CC3CCC2C3)cc1` (configuration not stated), the GI50 with HOP-62, in the assay with OVCAR-4, in the assay with NCI-H522, in the assay with K562, in the assay with OVCAR-3 and in the assay with EKVX was > 100 µM (inactive) each time. Moreover, the GI50 in the assay on A549 is > 100 µM (inactive); with SF-539, > 100 µM (inactive); in the assay with OVCAR-5 it was > 100 µM (inactive); in the assay on HOP-92, 59.8 µM (inactive); in the assay with A498 it was 77.3 µM (inactive); in the assay with HL-60 it was 50 µM (inactive). In addition, the GI50 with COLO 205, in the assay with UACC-257, in the assay with SK-MEL-5 and in the assay on HCT-116 was > 100 µM (inactive) in each case.
With `N=c1oc2cc(O)c(O)cc2cc1C(N)=O`, the GI50 in the assay on HOP-62 is > 100 µM (inactive); with OVCAR-4 it was > 100 µM (inactive); in the assay with NCI-H522 it was 45.1 µM (inactive); in the assay with K562, > 100 µM (inactive); with OVCAR-3, > 100 µM (inactive); with EKVX, > 100 µM (inactive). Moreover, the GI50 with A549, with NCI-H226, with SF-539, in the assay on OVCAR-5, with HOP-92 and in the assay with A498 was > 100 µM (inactive) in each case. Besides, the GI50 was > 10 µM (inactive) with HL-60; > 100 µM (inactive) in the assay with COLO 205; > 100 µM (inactive) in the assay with UACC-257; > 100 µM (inactive) with SK-MEL-5; > 100 µM (inactive) in the assay on HCT-116.
For `O=C(O)C1Cc2[nH]c3ccccc3c2C2CCCC12` (configuration not stated), the GI50 in the assay with OVCAR-4, in the assay with NCI-H522, in the assay on K562, in the assay on OVCAR-3, in the assay with EKVX and in the assay with A549 was > 100 µM (inactive) throughout. Besides, the GI50 was 5.15 µM (inactive) in the assay with NCI-H226; > 100 µM (inactive) with SF-539; > 100 µM (inactive) in the assay with OVCAR-5; > 100 µM (inactive) in the assay on HOP-92; > 100 µM (inactive) in the assay on A498; > 100 µM (inactive) in the assay on COLO 205. Moreover, the GI50 in the assay on UACC-257, with SK-MEL-5 and in the assay on HCT-116 was > 100 µM (inactive) throughout.
Take `Cc1nc(-c2nc([N+](=O)[O-])c([N+](=O)[O-])[nH]2)cs1`: the GI50 in the assay with HOP-62, with OVCAR-4, in the assay with NCI-H522, in the assay with K562, in the assay on OVCAR-3 and in the assay on EKVX was > 100 µM (inactive) in each case. The GI50 in the assay with A549, in the assay with NCI-H226, with SF-539, in the assay with OVCAR-5, with HOP-92 and in the assay with A498 was > 100 µM (inactive) throughout. The GI50 in the assay on HL-60, in the assay on COLO 205, in the assay on UACC-257, with SK-MEL-5 and with HCT-116 was > 100 µM (inactive) each time.
Turning to `COc1cc2ccc3c4c(OC)cc(OC)c(OC)c4c([O-])[n+](C)c3c2cc1OC`, the GI50 with HOP-62 is 15.1 µM (inactive); in the assay with OVCAR-4, 18.1 µM (inactive); in the assay with NCI-H522 it was 2.55 µM (inactive); with K562 it was 0.568 µM (active); with OVCAR-3 it was 7.13 µM (inactive); in the assay on EKVX it was 22.2 µM (inactive). The GI50 in the assay on A549 was 4.01 µM (inactive); in the assay with SF-539, > 32.7 µM (inactive); in the assay on OVCAR-5 it was 11.1 µM (inactive); in the assay with HOP-92, 12 µM (inactive); with A498, 3.76 µM (inactive); with HL-60, 1.33 µM (inactive). Besides, the GI50 in the assay on COLO 205 is 2.58 µM (inactive); with UACC-257, 17.9 µM (inactive); with SK-MEL-5, 9.02 µM (inactive); with HCT-116, 11.5 µM (inactive).
In the case of `COc1cccc(-c2nccc3c(OCc4ccccc4)c(OC)c(OC)cc23)c1`, the GI50 was > 100 µM (inactive) in the assay on HOP-62; > 100 µM (inactive) in the assay with NCI-H522; 4.91 µM (inactive) with K562; > 100 µM (inactive) in the assay with OVCAR-3; > 100 µM (inactive) with EKVX; > 100 µM (inactive) in the assay with A549. Also, the GI50 in the assay on NCI-H226 was > 100 µM (inactive); in the assay with SF-539 it was > 100 µM (inactive); in the assay with OVCAR-5, > 100 µM (inactive); in the assay on HOP-92 it was > 100 µM (inactive); in the assay with A498, > 100 µM (inactive); in the assay on HL-60 it was 4.25 µM (inactive). Moreover, the GI50 is > 100 µM (inactive) in the assay with COLO 205, > 100 µM (inactive) in the assay with UACC-257, 8.97 µM (inactive) in the assay on SK-MEL-5 and 7.57 µM (inactive) in the assay on HCT-116.
For the molecule `CN(C)/C(=N\C#N)N(Cc1ccccc1)Cc1ccccc1`, the GI50 with HOP-62 is > 100 µM (inactive); with OVCAR-4 it was > 100 µM (inactive); with NCI-H522, 24.9 µM (inactive); in the assay with K562 it was 17.9 µM (inactive); in the assay with OVCAR-3, > 100 µM (inactive); in the assay with EKVX it was > 100 µM (inactive). Further, the GI50 was > 100 µM (inactive) in the assay with A549; > 100 µM (inactive) in the assay with NCI-H226; > 100 µM (inactive) with SF-539; > 100 µM (inactive) with OVCAR-5; 36.3 µM (inactive) with HOP-92; 49 µM (inactive) with A498. In addition, the GI50 is 44.3 µM (inactive) in the assay with HL-60; 74 µM (inactive) with COLO 205; > 100 µM (inactive) in the assay on UACC-257; > 100 µM (inactive) in the assay with SK-MEL-5; 53.5 µM (inactive) in the assay with HCT-116.
